Activity calls are given as the source filed them. The calls are words filed in the database; no cut-off is given here.
What was measured:
[1] = Antioxidant activity assessed as inhibition of peroxidation of linolenic acid at 37 ug/mL by TBARS assay; format: functional
[2] = tested on: Radical scavenging activity; experiment: Antioxidant activity assessed as DPPH radical scavenging activity at 50 ug/mL; format: functional
[3] = tested on: Radical scavenging activity; experiment: Antioxidant activity assessed as DPPH radical scavenging activity at 500 ug/mL; format: functional
[4] = tested on: Radical scavenging activity; experiment: Antioxidant activity assessed as DPPH radical scavenging activity at 25 ug/mL; format: functional
[5] = Antioxidant activity assessed as inhibition of peroxidation of linolenic acid at 7.4 ug/mL by TBARS assay; format: functional
[6] = tested on: Radical scavenging activity; experiment: Antioxidant activity assessed as DPPH radical scavenging activity at 100 ug/mL; format: functional
[Chlorella] fusca = Antimicrobial activity against Chlorella fusca 50 ug/disk by agar diffusion method; format: functional, organism-based; conditions: Scenedesmus fuscus
Microbotryum violaceum = experiment: Antifungal activity against Microbotryum violaceum 50 ug/disk by agar diffusion method; format: functional
[7] = molecular target: Tyrosine-protein kinase Lck (Homo sapiens) (UniProt P06239); experiment: Inhibition of p56-LCK assessed as residual enzyme activity at 200 ug/mL
Chain of Tyrosine-protein kinase Lck (Homo sapiens) (P06239 2-509 limits assumed): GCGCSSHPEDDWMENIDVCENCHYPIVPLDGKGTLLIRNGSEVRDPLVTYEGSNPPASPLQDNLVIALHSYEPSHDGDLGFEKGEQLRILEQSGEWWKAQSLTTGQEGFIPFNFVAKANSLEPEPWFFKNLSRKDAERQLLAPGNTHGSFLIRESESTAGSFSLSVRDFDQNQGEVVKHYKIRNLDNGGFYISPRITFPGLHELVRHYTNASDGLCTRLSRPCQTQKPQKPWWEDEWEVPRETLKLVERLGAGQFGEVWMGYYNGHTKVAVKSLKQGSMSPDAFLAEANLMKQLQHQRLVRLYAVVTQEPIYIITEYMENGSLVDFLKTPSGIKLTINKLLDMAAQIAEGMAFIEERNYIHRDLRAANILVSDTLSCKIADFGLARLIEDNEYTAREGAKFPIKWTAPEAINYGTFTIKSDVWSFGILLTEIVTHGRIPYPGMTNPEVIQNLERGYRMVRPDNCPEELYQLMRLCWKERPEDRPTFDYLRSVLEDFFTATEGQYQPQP

Mycotypha microspora = experiment: Antifungal activity against Mycotypha microspora 50 ug/disk by agar diffusion method; format: functional, organism-based
[8] = tested on: Aspergillus pseudoglaucus; experiment: Antifungal activity against Eurotium repens 50 ug/disk by agar diffusion method; format: functional
[9] = molecular target: Human immunodeficiency virus type 1 reverse transcriptase (Human immunodeficiency virus 1) (UniProt Q72547); experiment: Inhibition of HIV1 reverse transcriptase assessed as residual enzyme activity at 66 ug/mL
Priestia megaterium = experiment: Antibacterial activity against Bacillus megaterium 50 ug/disk by agar diffusion method; format: functional
Escherichia coli = experiment: Antibacterial activity against Escherichia coli 50 ug/disk by agar diffusion method; format: functional, organism-based

Row | SMILES | inhibition [1] [%] | Activity [2] [%] | Activity [3] [%] | Activity [4] [%] | inhibition [5] [%] | Activity [6] [%] | Activity ([Chlorella] fusca) | Activity (Microbotryum violaceum) | Activity [7] [%] | Activity (Mycotypha microspora) | Activity [8] | Activity [9] [%] | Activity (Priestia megaterium) | Activity (Escherichia coli) | inhibition zone (IZ) (Microbotryum violaceum) [mm] | inhibition zone (IZ) [8] [mm] | inhibition zone (IZ) (Priestia megaterium) [mm]
1 | Cc1cc(C(C)(C)C)c(O)c(C(C)(C)C)c1 | 48.5 | 83.1 | 87.8 | 73.4 | 42.8 | 89.1 |  |  |  |  |  |  |  |  |  |  | 
2 | O=C(O)c1ccc(CO)o1 | 7.4 | 53.4 | 97 | 30.7 | 2.6 | 87.7 | inactive | inactive | 0 | inactive | inactive | 98.3 | inactive | inactive |  |  | 
3 | Cc1c(O)c(O)cc2oc3cc(O)cc(O)c3c(=O)c12 [ANOMALIN A] | 37 | 94.8 | 95.4 | 94.7 | 17 | 95.2 | inactive |  | 0 |  |  | 82.2 | inactive | inactive | 1 |  | 
4 | Cc1cc(O)cc2oc3cc(O)cc(O)c3c(=O)c12 [NORLICHEXANTHONE] |  | 12.9 | 90.6 | 6.2 | -7.4 | 25.3 | inactive |  | 0 |  |  | 82.9 |  |  |  | 1 | 1
